Assay results published in US20080317863A1, “Pharmaceutical Compositions Useful in the Transmucosal Administration of Drugs” (priority 2005, published 2008).

What was measured:
[1] = Surface area by permeametry; format: physicochemical; details: permeametry with Blaine apparatus; mean of three, SD in parentheses
Experimental: (§1) Particle sizes are shown as median values by weight as measured by laser diffraction analysis (Sympatec Helos […], Germany). […] Surface areas were measured by steady state […] (Johansson et al, Int. […] The results are shown as the mean value from three measurements. The standard deviation is given in parentheses.

[2] = Particle size by laser diffraction analysis; format: physicochemical; details: median by weight, 10% and 90% undersize limits in parentheses
Experimental: as §1

## O=C([O-])c1ccccc1O.[Na+] [Sodium salicylate, sodium salicylate]
[1]
  Surface Area: 1.77 (0.13) m^2/g
[2]
  Particle Size: 3.17 (0.8, 10.8) μm
